Experimental data: patent US20240382629A1, “HETEROBIVALENT AND HOMOBIVALENT AGENTS TARGETING FIBROBLAST ACTIVATION PROTEIN ALPHA AND/OR PROSTATE-SPECIFIC MEMBRANE ANTIGEN” (The Johns Hopkins University, priority 2021, published 2024)
Values joined by “and” are separate entries in the source; they are usually repeats but may differ in a detail not shown here. Identical values can stand only once.

Experiment: Biodistribution of representative compounds (Example 13), % ID/g in tissues of tumor-bearing mice
Type: in vivo, mouse
Settings: sub-heading prints [^18F]JHU1221785
[1] = 60 min + Blocker cold FAPI-04 10 nmole

## N#CC1CCCN1C(=O)CNC(=O)c1ccnc2ccc(OCCCNCC([18F])C(O)C(O)C(O)CO)cc12 (centres unmarked) [[^18F]FAP-FDG]
[1]
  % ID/g Bladder (individual mouse): 1.45 % ID/g and 2.74 % ID/g
  % ID/g Blood (individual mouse): 0.20 % ID/g and 0.25 % ID/g
  % ID/g Brain (individual mouse): 4.18 % ID/g and 4.67 % ID/g
  % ID/g Fat (individual mouse): 0.63 % ID/g and 0.26 % ID/g
  % ID/g Femur (individual mouse): 1.33 % ID/g and 1.67 % ID/g
  % ID/g Heart (individual mouse): 11.97 % ID/g and 17.79 % ID/g
  % ID/g Kidney (individual mouse): 0.95 % ID/g and 0.87 % ID/g
  % ID/g Large intestine (individual mouse): 3.51 % ID/g and 3.22 % ID/g
  % ID/g Liver (individual mouse): 0.38 % ID/g and 0.55 % ID/g
  % ID/g Lung (individual mouse): 2.25 % ID/g and 2.08 % ID/g
  % ID/g Mean Bladder: 2.10 % ID/g
  % ID/g Mean Blood: 0.22 % ID/g
  % ID/g Mean Brain: 4.43 % ID/g
  % ID/g Mean Fat: 0.44 % ID/g
  % ID/g Mean Femur: 1.50 % ID/g
  % ID/g Mean Heart: 14.88 % ID/g
  % ID/g Mean Kidney: 0.91 % ID/g
  % ID/g Mean Large intestine: 3.37 % ID/g
  % ID/g Mean Liver: 0.47 % ID/g
  % ID/g Mean Lung: 2.17 % ID/g
  % ID/g Mean Muscle: 6.73 % ID/g
  % ID/g Mean Pancreas: 1.01 % ID/g
  % ID/g Mean Salivary gland: 3.76 % ID/g
  % ID/g Mean Small intestine: 0.77 % ID/g
  % ID/g Mean Spleen: 1.30 % ID/g
  % ID/g Mean Stomach: 2.76 % ID/g
  % ID/g Mean Tumor: 3.65 % ID/g
  % ID/g Muscle (individual mouse): 6.83 % ID/g and 6.64 % ID/g
  % ID/g Pancreas (individual mouse): 1.20 % ID/g and 0.82 % ID/g
  % ID/g Salivery gland (individual mouse): 5.34 % ID/g and 2.19 % ID/g
  % ID/g Small intestine (individual mouse): 0.61 % ID/g and 0.92 % ID/g
  % ID/g Spleen (individual mouse): 0.92 % ID/g and 1.68 % ID/g
  % ID/g Stomach (individual mouse): 3.50 % ID/g and 2.02 % ID/g
  % ID/g Tumor (individual mouse): 3.33 % ID/g and 3.97 % ID/g
60 min, 20 μCi per mouse
  % ID/g Bladder (individual mouse): 2.55 % ID/g and 2.49 % ID/g
  % ID/g Blood (individual mouse): 0.21 % ID/g and 0.25 % ID/g
  % ID/g Brain (individual mouse): 5.31 % ID/g and 6.18 % ID/g
  % ID/g Fat (individual mouse): 3.29 % ID/g and 1.13 % ID/g
  % ID/g Femur (individual mouse): 2.28 % ID/g and 2.68 % ID/g
  % ID/g Heart (individual mouse): 23.96 % ID/g and 16.00 % ID/g
  % ID/g Kidney (individual mouse): 1.13 % ID/g and 2.01 % ID/g
  % ID/g Large intestine (individual mouse): 4.03 % ID/g and 4.32 % ID/g
  % ID/g Liver (individual mouse): 0.55 % ID/g and 0.70 % ID/g
  % ID/g Lung (individual mouse): 2.15 % ID/g and 2.85 % ID/g
  % ID/g Mean Bladder: 2.52 % ID/g
  % ID/g Mean Blood: 0.23 % ID/g
  % ID/g Mean Brain: 5.74 % ID/g
  % ID/g Mean Fat: 2.21 % ID/g
  % ID/g Mean Femur: 2.48 % ID/g
  % ID/g Mean Heart: 19.98 % ID/g
  % ID/g Mean Kidney: 1.57 % ID/g
  % ID/g Mean Large intestine: 4.17 % ID/g
  % ID/g Mean Liver: 0.63 % ID/g
  % ID/g Mean Lung: 2.50 % ID/g
  % ID/g Mean Muscle: 6.18 % ID/g
  % ID/g Mean Pancreas: 1.33 % ID/g
  % ID/g Mean Salivary gland: 5.31 % ID/g
  % ID/g Mean Small intestine: 1.06 % ID/g
  % ID/g Mean Spleen: 1.29 % ID/g
  % ID/g Mean Stomach: 2.72 % ID/g
  % ID/g Mean Tumor: 5.02 % ID/g
  % ID/g Muscle (individual mouse): 7.65 % ID/g and 4.71 % ID/g
  % ID/g Pancreas (individual mouse): 1.25 % ID/g and 1.42 % ID/g
  % ID/g Salivery gland (individual mouse): 6.70 % ID/g and 3.91 % ID/g
  % ID/g Small intestine (individual mouse): 1.21 % ID/g and 0.91 % ID/g
  % ID/g Spleen (individual mouse): 1.20 % ID/g and 1.38 % ID/g
  % ID/g Stomach (individual mouse): 2.04 % ID/g and 3.39 % ID/g
  % ID/g Tumor (individual mouse): 4.12 % ID/g and 5.91 % ID/g
